The supplement of paper PMC4862054
Where “and” joins values, the source holds several entries; their conditions need not be identical. Equal values may be shown once.

Key:
Settings in all cases: incubation time: 72 h
[1] = test system: CAL-51; assay: normalised viability (% of control), CellTiter-Blue; higher = more viable cells (about 100 = DMSO control)
Protocol: (§1)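 DSRT, CellTiter-Blue viability, 72 h incubation. Signal is normalised to DMSO and benzethonium chloride controls. Value is the normalised response at dose 9.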

[2] = test system: CAL-148; assay: as above
Protocol: as §1

[3] = test system: HDQ-P1; assay: as above
Protocol: as §1

[4] = test system: DU-4475; assay: as above
Protocol: as §1

[5] = test system: CAL-85-1; assay: normalised response (% of control), CellTiter-Glo; higher = more viable cells (100 = DMSO, 0 = benzethonium chloride kill control)
Outline: (§2)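 Compound was dispensed into 384-well plates at 5 concentrations in 10-fold steps spanning a 10,000-fold range specific to that compound. Breast cancer cell lines were added as 20 µl suspension and left for 72 h before CellTox Green fluorescence (485/520 nm) and then CellTiter-Glo luminescence, read after 10 min at room temperature. Each reported value is the normalised signal at one concentration, with 0.1 % DMSO set at 100 and a positive kill control at 0 on each plate.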

[6] = test system: MFM-223; assay: as above
Outline: as §2

[7] = test system: HCC1937; assay: as above
Outline: as §2

[8] = test system: MCF-10A; assay: as above
Outline: as §2

[9] = test system: BT-549; assay: as above
Outline: as §2

[10] = test system: SK-BR-3; assay: as above
Outline: as §2

[11] = test system: CAL-51; assay: as above
Outline: as §2

[12] = test system: BT-474; assay: as above
Outline: as §2

[13] = test system: CAL-148; assay: as above
Outline: as §2

[14] = test system: HDQ-P1; assay: as above
Outline: as §2

[15] = test system: HCC1143; assay: as above
Outline: as §2

[16] = test system: DU-4475; assay: as above
Outline: as §2

[17] = test system: MDA-MB-231; assay: as above
Outline: as §2

[18] = test system: Hs578T; assay: as above
Outline: as §2

[19] = test system: HCC1599; assay: as above
Outline: as §2

[20] = test system: CAL-120; assay: as above
Outline: as §2

[21] = test system: MDA-MB-453; assay: as above
Outline: as §2

[22] = test system: MDA-MB-468; assay: as above
Outline: as §2

[23] = test system: MDA-MB-436; assay: as above
Outline: as §2

Structure (SMILES) | normalised viability [1] | normalised viability [2] | normalised viability [3] | normalised viability [4] | normalised response [5] | normalised response [6] | normalised response [7] | normalised response [8] | normalised response [9] | normalised response [10] | normalised response [11] | normalised response [12] | normalised response [13] | normalised response [14] | normalised response [15] | normalised response [16] | normalised response [17] | normalised response [18] | normalised response [19] | normalised response [20] | normalised response [21] | normalised response [22] | normalised response [23]
Nc1nc(Cl)nc2c1ncn2[C@@H]1O[C@H](CO)[C@@H](O)[C@@H]1F [Clofarabine] (10000 nM) | 12.4% | 35.5% | 91.7% | 14% | 35.4% | 92.3% | 84.2% | 56.9% | 27.4% | 36.8% | 17% | 66.3% | 40.5% | 73.7% | 40.3% | 49.3% | 73% | 68.2% | 29.1% | 69.8% | 75.3% | 16.4% | 21.4%
CCN(CC)CCOc1ccc(C(=C(Cl)c2ccccc2)c2ccccc2)cc1 [Clomifene] (10000 nM) | 84.7% | 93.4% | 38.8% | 48.2% | 44.9% | 26.5% | 10.1% | 46.1% | 71.3% | 27.5% | 98.5% | 8.15% | 74.4% | 82.1% | 95.4% | 44.1% | 4.7% | 26.6% | 4.3% | 90.2% | 14.7% | 65% | 87.6%
C[C@@H]1C[C@H]2[C@@H]3CCC4=CC(=O)C=C[C@]4(C)[C@@]3(F)[C@@H](O)C[C@]2(C)[C@@]1(O)C(=O)CO [Dexamethasone] (10000 nM) | 97.9% | 109% | 125% | 104% | 124% | 94.2% | 98.4% | 79.9% | 96.7% | 86.9% | 132% | 137% | 98.2% | 82% | 99.6% | 101% | 149% | 105% | 83.5% | 70.3% | 78.7% | 95.2% | 103%
CC(C)C(=O)Nc1ccc([N+](=O)[O-])c(C(F)(F)F)c1 [Flutamide] (10000 nM) | 98.3% | 106% | 124% | 87.4% | 90.1% | 90.9% | 92.7% | 96.7% | 94.1% | 105% | 89.6% | 95.6% | 101% | 92.4% | 95% | 97.7% | 93.3% | 101% | 90% | 104% | 96.1% | 93.9% | 98.4%
COc1cc2c(Oc3ccc(NC(=O)C4(C(=O)Nc5ccc(F)cc5)CC4)cc3F)ccnc2cc1OCCCN1CCOCC1 [Foretinib] (1000 nM) | 24.8% | 25.8% | 45.4% | 29.4% | 90.3% | 44.6% | 72.5% | 60.7% | 75.5% | 98% | 67.3% | 73% | 48.9% | 66.1% | 69.2% | 80.8% | 60.2% | 76% | 104% | 68% | 125% | 34.1% | 73.3%
NC(=O)NO [Hydroxyurea] (100000 nM) | 100% | 119% | 123% | 121% | 101% | 104% | 95% | 105% | 77.4% | 110% | 29% | 97.2% | 102% | 97% | 104% | 102% | 98.5% | 104% | 96.4% | 96.9% | 106% | 102% | 103%
O=NN(CCCl)C(=O)NC1CCCCC1 [Lomustine] (10000 nM) | 104% | 99.1% | 111% | 91.5% | 99.9% | 106% | 99% | 104% | 104% | 101% | 110% | 97.2% | 97% | 99.5% | 96.2% | 99.7% | 95.9% | 103% | 104% | 98.5% | 107% | 101% | 105%
O=C(O)CC[C@H]1CC[C@@](c2cc(F)ccc2F)(S(=O)(=O)c2ccc(Cl)cc2)CC1 [MK-0752] (1000 nM) | 100% | 119% | 126% | 110% | 98.1% | 100% | 95.1% | 95.6% | 93% | 117% | 126% | 95.4% | 115% | 95.5% | 103% | 102% | 97% | 98.5% | 89% | 105% | 108% | 94% | 105%
NC(=O)c1cccc2cn(-c3ccc([C@@H]4CCCNC4)cc3)nc12 [MK-4827] (10000 nM) | 40.7% | 59.2% | 94% | 32.7% | 81.8% | 106% | 101% | 101% | 83.7% | 73.3% | 65.8% | 85.8% | 71.8% | 94.3% | 87.3% | 69.3% | 87.4% | 85.2% | 91.4% | 93.2% | 108% | 45.8% | 68.9%
CO[C@H](C(=O)[C@@H](O)[C@@H](C)O)[C@@H]1Cc2cc3cc(O[C@H]4C[C@@H](O[C@@H]5C[C@@H](O)[C@H](O)[C@@H](C)O5)[C@H](O)[C@@H](C)O4)c(C)c(O)c3c(O)c2C(=O)[C@H]1O[C@H]1C[C@@H](O[C@@H]2C[C@@H](O)[C@@H](O[C@@H]3C[C@](C)(O)[C@H](O)[C@@H](C)O3)[C@@H](C)O2)[C@H](O)[C@@H](C)O1 [Plicamycin] (10000 nM) | 3.24% and 3.4% | 7.52% and 8.68% | 22.3% and 16% | 2.44% and 0.15% | 9.87% | 29.1% | 21% | 5.35% | 1.99% | 10.1% | 9.56% | 9.55% | 6.34% | 19.1% | 6.57% | 1.22% | 7.32% | 8.19% | 4.89% | 27% | 16.1% | 4.44% | 22.5%
C[C@]12C=CC(=O)C=C1CC[C@@H]1[C@@H]2C(=O)C[C@@]2(C)[C@H]1CC[C@]2(O)C(=O)CO [Prednisone] (10000 nM) | 101% | 103% | 122% | 99.3% | 98.6% | 97.4% | 95.4% | 113% | 94.6% | 107% | 118% | 105% | 109% | 98.6% | 103% | 107% | 100% | 102% | 102% | 49% | 100% | 104% | 98.2%
CN1CCN(c2nc(C3=C(c4c[nH]c5ccccc45)C(=O)NC3=O)c3ccccc3n2)CC1 [Sotrastaurin] (10000 nM) | 108% | 127% | 124% | 77.1% | 112% | 67.4% | 118% | 94.2% | 97.9% | 67.5% | 92.5% | 103% | 84.3% | 86.2% | 94.2% | 76.4% | 107% | 108% | 82.8% | 82.7% | 108% | 78.6% | 107%
CC/C(=C(\c1ccccc1)c1ccc(OCCN(C)C)cc1)c1ccccc1 [Tamoxifen] (10000 nM) | 90.2% | 120% | 78.5% | 108% | 81.6% | 58.2% | 51.8% | 74.3% | 78.2% | 53.4% | 71.7% | 69.3% | 77.7% | 99.1% | 95.7% | 85.7% | 60.8% | 87.8% | 73% | 90% | 23.5% | 77% | 86.9%
Cn1nnc2c(C(N)=O)ncn2c1=O [Temozolomide] (10000 nM) | 87.8% | 116% | 31.3% | 116% | 99.2% | 101% | 91.6% | 96.2% | 100% | 93.9% | 106% | 91.2% | 95.8% | 95.1% | 95.1% | 91.1% | 91.2% | 95.7% | 108% | 95.2% | 97.9% | 99.1% | 98%
CC[C@@H]1C(=O)N(C)c2cnc(Nc3ccc(C(=O)N[C@H]4CC[C@H](N5CCN(CC6CC6)CC5)CC4)cc3OC)nc2N1C(C)C [Volasertib] (1000 nM) | 7.23% | 31.4% | 87.8% | 35.1% | 48.6% | 51.2% | 66.8% | 46.9% | 29.1% | 27.2% | 26.9% | 66.4% | 79.9% | 64.7% | 41.3% | 66.2% | 73% | 25.4% | 28.3% | 49.1% | 62.4% | 48% | 65.6%
